In US12528761B2, “Thyromimetics” (Autobahn Therapeutics, Inc., priority 2020, dated 2026):

What follows are compounds tested against T1, recombinant human FAAH (rhFAAH) (Homo sapiens, UniProt O00519) (assay: FAAH substrate evaluation (formation of acid metabolite, LC-MS/MS)). Conditions: 0.5 ng/μL rhFAAH, 1 μM test compound, pH 8.0, room temperature, 0-60 minutes.
T1 construct: purchased Cayman Chemical (Ann Arbor, MI, USA)
T1 sequence (O00519 1-579): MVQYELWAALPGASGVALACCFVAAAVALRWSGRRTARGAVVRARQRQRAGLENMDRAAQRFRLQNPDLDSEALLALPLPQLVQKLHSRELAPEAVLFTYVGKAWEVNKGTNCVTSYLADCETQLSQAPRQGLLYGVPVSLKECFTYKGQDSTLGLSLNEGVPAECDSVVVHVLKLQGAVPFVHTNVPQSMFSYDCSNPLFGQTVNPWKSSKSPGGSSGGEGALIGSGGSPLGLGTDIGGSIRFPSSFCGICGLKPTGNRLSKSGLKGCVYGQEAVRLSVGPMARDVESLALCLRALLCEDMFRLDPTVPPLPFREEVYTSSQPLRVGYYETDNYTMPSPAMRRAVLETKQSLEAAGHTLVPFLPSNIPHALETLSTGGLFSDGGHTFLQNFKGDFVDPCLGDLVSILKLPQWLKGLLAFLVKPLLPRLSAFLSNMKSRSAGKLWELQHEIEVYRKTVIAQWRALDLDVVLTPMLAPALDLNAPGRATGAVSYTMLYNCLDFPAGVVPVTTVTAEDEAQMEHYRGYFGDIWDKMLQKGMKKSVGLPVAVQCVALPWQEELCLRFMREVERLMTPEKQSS
Format: biochemical
Set-up: key: A: ke is equal to or less than 1.0; B: ke is greater than 1.0 and less than or equal to 2.5; C: ke is greater than 2.5; NC: no conversion
Protocol: Purified recombinant human FAAH (rhFAAH) was purchased from Cayman Chemical (Ann Arbor, MI, USA). The total volume for each incubation was 400 μL containing a final 0.5 ng/μL rhFAAH, 1 μM test compound, 1.25% ethanol or 1 μM PF-3845 (FAAH inhibitor), and 0.1% bovine serum albumin in Tris-EDTA buffer at pH 8.0). The positive control was LL-341001. The incubation was conducted at the room temperature. At 0, 5, 15, 30 and 60 minutes, an aliquot of 30 μL reaction mixtures was removed and mixed with 300 μL acetonitrile containing 5 ng/mL terfenadine and 10 ng/mL tolbutamide as internal standards to quench the reaction. The resulting mixture was centrifuged at 4000 rpm, 4° C. for 15 minutes, and 100 μL supernatant was ready for LC-MS/MS analysis to measure the formation of acid metabolite.
Acquity Ultra Performance LC system from Waters was used for sample analysis. The chromatography was performed on a reverse phase Kinetex 2.6 μm C18 column, 2.1×30 mm, 100 Å. The mobile phase A comprised of 0.1% formic acid in water and mobile phase B comprised of 0.1% formic acid in acetonitrile with a 2-min run time at the flow rate of 0.8 mL/min for the acid metabolite from positive control or a 1.5 min run time at the flow rate of 0.9 mL/min for the acid metabolite of test compounds. The mass spectrometer (API-5500 and API Q Trap 4000 Applied Biosystems/MDS SCIEX Instruments, Framingham, MA, USA) was operated under ESI positive or negative ion MRM mode.
The formation of acid metabolite was monitored and quantified using one calibration point of 1 μM. The observed rate constant (ke) for the acid metabolite formation was calculated by plotting the metabolite concentration versus time of incubation with the slope being ke and is shown in Table 4.

Row | SMILES | ke, observed rate constant for the acid metabolite formation
1 | CC(C)c1c(O)ccc(Cc2c(Cl)cc(NCC(=O)Nc3cccnn3)c(F)c2Cl)c1F [Compound 157, 2-((3,5-dichloro-2-fluoro-4-(2-fluoro-4-hydroxy-3-isopropylbenzyl)phenyl)amino)-N-(pyridazin-3-yl)acetamide] | B (ke is greater than 1.0 and less than or equal to 2.5)
2 | CCNC(=O)CSc1cc(Cl)c(Cc2ccc(O)c(C(C)C)c2F)c(Cl)c1 [Compound 187, 2-((3,5-dichloro-4-(2-fluoro-4-hydroxy-3-isopropylbenzyl)phenyl)thio)-N-ethylacetamide] | A (ke is equal to or less than 1.0)
3 | CCNC(=O)CNc1cc(Cl)c(Cc2ccc(O)c(C(C)C)c2F)c(Cl)c1F [Compound 165, 2-((3,5-dichloro-2-fluoro-4-(2-fluoro-4-hydroxy-3-isopropylbenzyl)phenyl)amino)-N-ethylacetamide] | A (ke is equal to or less than 1.0)
4 | CNC(=O)/C=C/c1cc(Cl)c(Cc2ccc(O)c(C(C)C)c2F)c(Cl)c1 [Compound 115, (E)-3-(3,5-dichloro-4-(2-fluoro-4-hydroxy-3-isopropylbenzyl)phenyl)-N-methylacrylamide] | NC
5 | CC(C)c1c(O)ccc(Cc2c(Cl)cc(NCC(=O)Nc3ccnnc3)c(F)c2Cl)c1F [Compound 162, 2-((3,5-dichloro-2-fluoro-4-(2-fluoro-4-hydroxy-3-isopropylbenzyl)phenyl)amino)-N-(pyridazin-4-yl)acetamide] | C (ke is greater than 2.5)
6 | CNC(=O)CSCc1cc(C)c(Cc2ccc(O)c(C(C)C)c2)c(Cl)c1 [Compound 241, 2-((3-chloro-4-(4-hydroxy-3-isopropylbenzyl)-5-methylbenzyl)thio)-N-methylacetamide] | B (ke is greater than 1.0 and less than or equal to 2.5)
7 | CC(C)c1cc(Cc2c(Cl)cc(SCC(=O)Nc3cccnn3)cc2Cl)ccc1O [Compound 174, 2-((3,5-dichloro-4-(4-hydroxy-3-isopropylbenzyl)phenyl)thio)-N-(pyridazin-3-yl)acetamide] | C (ke is greater than 2.5)
8 | CON(C)C(=O)/C(C)=C/c1cc(Cl)c(Cc2ccc(O)c(C(C)C)c2F)c(Cl)c1 [Compound 122, (E)-3-(3,5-dichloro-4-(2-fluoro-4-hydroxy-3-isopropylbenzyl)phenyl)-N-methoxy-N,2-dimethylacrylamide] | A (ke is equal to or less than 1.0)
9 | CC(C)c1c(O)ccc(Cc2c(Cl)cc(CC(=O)N(C)C)cc2Cl)c1F [Compound 34, 2-(3,5-dichloro-4-(2-fluoro-4-hydroxy-3-isopropylbenzyl)phenyl)-N,N-dimethylacetamide] | NC
10 | CCNC(=O)CSc1cc(Cl)c(Cc2ccc(O)c(C(C)C)c2)c(Cl)c1 [Compound 186, 2-((3,5-dichloro-4-(4-hydroxy-3-isopropylbenzyl)phenyl)thio)-N-ethylacetamide] | A (ke is equal to or less than 1.0)
11 | CNC(=O)CNc1cc(Cl)c(Cc2ccc(O)c(C(C)C)c2F)c(Cl)c1 [Compound 47, 2-((3,5-dichloro-4-(2-fluoro-4-hydroxy-3-isopropylbenzyl)phenyl)amino)-N-methylacetamide] | A (ke is equal to or less than 1.0)
12 | CNC(=O)CNc1cc(C)c(Cc2ccc(O)c(C(C)C)c2)c(Cl)c1 [Compound 240, 2-((3-chloro-4-(4-hydroxy-3-isopropylbenzyl)-5-methylphenyl)amino)-N-methylacetamide] | NC
13 | CNC(=O)/C(C)=C/c1cc(Cl)c(Cc2ccc(O)c(C(C)C)c2)c(C)c1F [Compound 237, (E)-3-(5-chloro-2-fluoro-4-(4-hydroxy-3-isopropylbenzyl)-3-methylphenyl)-N,2-dimethylacrylamide] | A (ke is equal to or less than 1.0)
14 | CNC(=O)CSc1cc(C)c(Cc2ccc(O)c(C(C)C)c2)c(Cl)c1F [Compound 218, 2-((3-chloro-2-fluoro-4-(4-hydroxy-3-isopropylbenzyl)-5-methylphenyl)thio)-N-methylacetamide] | B (ke is greater than 1.0 and less than or equal to 2.5)
15 | CNC(=O)CSc1cc(Cl)c(Cc2ccc(O)c(C(C)C)c2F)c(Cl)c1 [Compound 188, 2-((3,5-dichloro-4-(2-fluoro-4-hydroxy-3-isopropylbenzyl)phenyl)thio)-N-methylacetamide] | B (ke is greater than 1.0 and less than or equal to 2.5)
16 | CC(C)c1cc(Cc2c(Cl)cc(SCC(=O)N3CCCC3)cc2Cl)ccc1O [Compound 182, 2-((3,5-dichloro-4-(4-hydroxy-3-isopropylbenzyl)phenyl)thio)-1-(pyrrolidin-1-yl)ethan-1-one] | A (ke is equal to or less than 1.0)
17 | CC(C)c1c(O)ccc(Cc2c(Cl)cc(NCC(=O)Nc3ccncc3)c(F)c2Cl)c1F [Compound 161, 2-((3,5-dichloro-2-fluoro-4-(2-fluoro-4-hydroxy-3-isopropylbenzyl)phenyl)amino)-N-(pyridin-4-yl)acetamide] | B (ke is greater than 1.0 and less than or equal to 2.5)
18 | CNC(=O)CNc1cc(Cl)c(Cc2ccc(O)c(C(C)C)c2)c(Cl)c1 [Compound 175, 2-((3,5-dichloro-4-(4-hydroxy-3-isopropylbenzyl)phenyl)amino)-N-methylacetamide] | A (ke is equal to or less than 1.0)
19 | CC(C)CNC(=O)CSc1cc(Cl)c(Cc2ccc(O)c(C(C)C)c2)c(Cl)c1 [Compound 185, 2-((3,5-dichloro-4-(4-hydroxy-3-isopropylbenzyl)phenyl)thio)-N-isobutylacetamide] | NC
20 | CNC(=O)CSCc1cc(Cl)c(Cc2ccc(O)c(C(C)C)c2F)c(Cl)c1 [Compound 147, 2-((3,5-dichloro-4-(2-fluoro-4-hydroxy-3-isopropylbenzyl)benzyl)thio)-N-methylacetamide] | C (ke is greater than 2.5)
21 | CC(C)CNC(=O)CNc1cc(Cl)c(Cc2ccc(O)c(C(C)C)c2F)c(Cl)c1F [Compound 164, 2-((3,5-dichloro-2-fluoro-4-(2-fluoro-4-hydroxy-3-isopropylbenzyl)phenyl)amino)-N-isobutylacetamide] | NC
22 | CC(C)c1c(O)ccc(Cc2c(Cl)cc(NCC(N)=O)c(F)c2Cl)c1F [Compound 163, 2-((3,5-dichloro-2-fluoro-4-(2-fluoro-4-hydroxy-3-isopropylbenzyl)phenyl)amino)acetamide] | A (ke is equal to or less than 1.0)
23 | C=C(Cc1cc(Cl)c(Cc2ccc(O)c(C(C)C)c2F)c(Cl)c1)C(=O)NC [Compound 177, 2-(3,5-dichloro-4-(2-fluoro-4-hydroxy-3-isopropylbenzyl)benzyl)-N-methylacrylamide] | NC
24 | Cc1noc(NC(=O)CSc2cc(Cl)c(Cc3ccc(O)c(C(C)C)c3)c(Cl)c2)c1C [Compound 168, 2-((3,5-dichloro-4-(4-hydroxy-3-isopropylbenzyl)phenyl)thio)-N-(3,4-dimethylisoxazol-5-yl)acetamide] | B (ke is greater than 1.0 and less than or equal to 2.5)
25 | CC(C)c1cc(Cc2c(Cl)cc(SCC(=O)NCc3ccccc3)cc2Cl)ccc1O [Compound 184, N-benzyl-2-((3,5-dichloro-4-(4-hydroxy-3-isopropylbenzyl)phenyl)thio)acetamide] | A (ke is equal to or less than 1.0)
